Laboratory results published in patent US5300433A, “Methods for the inactivation of viruses in viral-contaminated pharmaceutical compositions” (Rhone-Poulenc Rorer Pharmaceuticals Inc., priority 1991, dated 1994).
Where two headings read alike, the source gives them in different places.

Tests used:
HIV [1] = conditions: initial titer 9 log10
Procedure: A virus stock concentrate was prepared by infecting (CEM) cells at a multiplicity of infection of approximately 1. The cultures were established in 490 cm^2 Corning roller bottles containing approximately 450 ml of RPMI 1640 medium sufficient as is supplemented with 10% fetal bovine serum, penicillin, streptomycin, and 0.002 mg/ml polybrene. […] The total volume of the cultures was 1800 ml. […] The cultures were filtered through a 1.2 uM cellulose acetate filter. Virus was pelleted from the filtrate by centrifugation at 61,000×g for 4 hours at 4° C. The pelleted virus was resuspended with PBS (phosphate buffered saline solution).
Samples A, B and C were allowed to stand for 1 hour at 4° C. and sample D was allowed to stand for 1 hour at 25° C. Each sample was then centrifuged at 105,000×g for 90 minutes. The pellets were resuspended in 1 ml PBS and assayed for HIV by direct observation of the cytopathic effects of the virus on CEM cells. The assay method used in this example inherently rounds off titer to the nearest 0.5 log increment.

HIV [2] = system: HIV; set-up: species or system Human Immunodeficiency Virus
Text: The Factor IX solution obtained is further contacted with HIV virus to obtain a final titer of 8-9 log10 of virus. […]. The solution is then dialyzed to remove the chemical disinfectant and then filtered through a membrane with an effective porosity equivalent to 100 KD molecular weight cut off.

[3] = system: Factor IX - deficient plasma; assay: Factor IX activity by degree of correction in APTT time of Factor IX-deficient plasma; assay type: biochemical, human
Procedure: A purified Factor IX was obtained from PROTHAR® by chromatography on a monoclonal antibody affinity matrix specific to Factor IX. It contained approximately 0.065 milligrams of protein and 8 units of Factor IX activity per milliliter of solution. The purified preparation was ultrafiltered using an Amicon XM300 membrane and pressure of 5 p.s.i. The ultrafiltration proceeded very rapidly (about 2.5 ml/min). The filtrate was subsequently re-filtered through an Amicon XM100 membrane. The Factor IX activity in the final ultrafiltrate was 67%. Losses were not the result of Factor IX inactivation since specific activity was unaltered.
The product covered by this registered trademark of Armour Pharmaceutical is a stable lyophilized concentrate of human Factors II, VII, IX and X. It is prepared from pooled human plasma. Upon reconstitution it is a concentrated protein solution containing approximately 18 milligrams of total protein and 33 units of Factor IX activity per milliliter. The specific activity of Factor IX in the product ranges from 0 8-2.0 units per milligram of total protein.
In the first run, PROTHAR® was diluted 1:1 with 0.05M Tris-HCL, pH8.0. The resultant solution was ultrafiltered through an Amicon XM100 membrane (molecular weight cut-off of 100 K Daltons) using a pressure of 15 p.s.i. The ultrafiltration proceeded very slowly (about 0.25 ml/min), and the flow rate slowed as the protein inside the stirred cell became more concentrated. Only about 1% of the Factor IX activity found in the starting material appeared in the ultrafiltrate. […] Factor IX activity, in this and all other instances, is assayed by determining the degree of correction in APTT time of Factor IX - deficient plasma. J. H. Lenahan, Phillips and Phillips, Clin. Chem., Vol. 12, page 269 (1966).
Subsequent experiments were performed using an Amicon XM300 membrane (molecular weight cut-off of 300 K Daltons), pressures of 5 p.s.i., and reconstituted PROTHAR® dilutions of 1:6 and 1:10. Only about 17-19% of the Factor IX activity was found in the ultrafiltrate.

Compound: N#CS [NaSCN, sodium thiocyanate]
- TOTAL LOG10 ID50 (found) (HIV [1]; Sample A: final NaSCN 1.5, 1 hour, 4° C.): 1.0 LOG10 ID50
- TOTAL LOG10 ID50 (found) (HIV [1]; Sample B: final NaSCN 2.0, 1 hour, 4° C.): 1.0 LOG10 ID50
- TOTAL LOG10 ID50 (found) (HIV [1]; Sample C: final NaSCN 3.0, no buffer, 1 hour, 4° C.): 1.0 LOG10 ID50
- TOTAL LOG10 ID50 (found) (HIV [1]; Sample D: final NaSCN 2.0, 1 hour, 25° C.): 1.0 LOG10 ID50
- titer of HIV infectivity (HIV [2]): undetectable levels

Compound: Factor IX: purified Factor IX obtained from PROTHAR by chromatography on a monoclonal antibody affinity matrix specific to Factor IX
- HIV titer after dialysis and filtration (HIV [2]; 100 KD cut-off membrane, after NaSCN treatment): further reduced
- F.IX recovered ([3]; Example 5, 100 KD molecular weight cut-off filtration): 80-100%
- Factor IX activity recovered ([3]; Example 6, dialysis and 100 KD cut-off filtration): 80-100%
- specific activity after ultrafiltration ([3]; affinity-purified Factor IX, XM300 then XM100 membrane): unaltered
- Factor IX activity in the final ultrafiltrate ([3]; affinity-purified Factor IX, XM300 then XM100 membrane, 5 p.s.i.): 67%
- active Factor IX content, of the initial value ([3]; after 0.1% tri(n-butyl)phosphate and 1% Tween 80): > 80%
- specific activity ([3]; pre-purified by chromatography on a monoclonal antibody affinity matrix): ≤ 190 units/mg of protein
- Factor IX activity per milliliter of solution ([3]; purified Factor IX, approximately 0.065 milligrams of protein per milliliter): ~8 units per milliliter
